Experiment: Solubility of lipophilic triazine screening agents in oils (prior art solvents and solvents of the invention)
Type: physicochemical
Conditions: weight/weight, solution left at laboratory temperature for 1 month, no crystal or oily deposit
[1] = oil: Compound (m) of the invention
[2] = oil: Isopropyl N-lauroylsarcosinate
[3] = oil: Caprylic/capric acid triglycerides

| Compound | solubility of the screening agent in the oil [1] | solubility of the screening agent in the oil [2] | solubility of the screening agent in the oil (oil: C12-C15 alkyl benzoate) | solubility of the screening agent in the oil [3] | solubility of the screening agent in the oil (oil: Compound (v) of the invention) | solubility of the screening agent in the oil (oil: 2-Phenylethyl benzoate) | solubility of the screening agent in the oil (oil: Compound (I) of the invention) | solubility of the screening agent in the oil (oil: Compound (ii) of the invention) | solubility of the screening agent in the oil (oil: Compound (j) of the invention) |
| --- | --- | --- | --- | --- | --- | --- | --- | --- | --- |
| CC(C)(C)COC(=O)C(=Cc1ccc(Nc2nc(Nc3ccc(C=C(C(=O)OCC(C)(C)C)C(=O)OCC(C)(C)C)cc3)nc(Nc3ccc(C(=O)NC(C)(C)C)cc3)n2)cc1)C(=O)OCC(C)(C)C [Screening agent 4, Dineopentyl 2-[4-({4-({4-[(tert-butylamino)carbonyl]phenyl}amino)-6-[(4-{3-(neopentyloxy)-2-[(neopentyloxy)carbonyl]-3-oxoprop-1-enyl}phenyl)amino]-1,3,5-triazin-2-yl}amino)benzylidene]malonate] | 60% gel | 40% gel | – | – | – | – | – | – | – |
| CCCCOC(=O)c1ccc(Nc2nc(Nc3ccc(C=C(C(=O)OCC(C)(C)C)C(=O)OCC(C)(C)C)cc3)nc(Nc3ccc(C=C(C(=O)OCC(C)(C)C)C(=O)OCC(C)(C)C)cc3)n2)cc1 [Screening agent 3, Dineopentyl 2-[4-({4-{[4-(butoxycarbonyl)phenyl]amino}-6-[(4-{3-(neopentyloxy)-2-[(neopentyloxy)carbonyl]-3-oxoprop-1-enyl}phenyl)amino]-1,3,5-triazin-2-yl}amino)benzylidene]malonate] | 60% gel | 40% gel | – | – | – | – | – | – | – |
| 2,4-bis(isobutyl 4′-aminobenzalmalonate)-6-[(3-{1,3,3,3-tetramethyl-1-[(trimethylsilyl)oxy]disiloxanyl}propyl)amino]-1,3,5-triazine [Screening agent 2] | 60% gel | 35% | 8% | 6% | – | – | – | – | – |
| CC(C)(C)COC(=O)C(=Cc1ccc(Nc2nc(Nc3ccc(C=C(C(=O)OCC(C)(C)C)C(=O)OCC(C)(C)C)cc3)nc(Nc3ccc(C=C(C(=O)OCC(C)(C)C)C(=O)OCC(C)(C)C)cc3)n2)cc1)C(=O)OCC(C)(C)C [Screening agent 1, Dineopentyl 2-[4-({4,6-bis[(4-{3-(neopentyloxy)-2-[(neopentyloxy)carbonyl]-3-oxoprop-1-enyl}phenyl)amino]-1,3,5-triazin-2-yl}amino)benzylidene]malonate] | 60% gel | 40% gel | – | – | – | – | – | – | – |
| CCCCC(CC)COc1ccc(-c2nc(-c3ccc(OC)cc3)nc(-c3ccc(OCC(CC)CCCC)cc3O)n2)c(O)c1 (centres unmarked) [Screening agent 10, 5-[(2-Ethylhexyl)oxy]-2-[4-{4-[(2-ethylhexyl)oxy]-2-hydroxyphenyl}-6-(4-methoxyphenyl)-1,3,5-triazin-2-yl]phenol] | 18% | 10% | – | – | 20% | – | – | – | – |
| CCCCOC(=O)c1ccc(Nc2nc(NCCC[Si](C)(O[Si](C)(C)C)O[Si](C)(C)C)nc(Nc3ccc(C(=O)OCCCC)cc3)n2)cc1 [Screening agent 8, Butyl 4-({4-{[4-(butoxycarbonyl)phenyl]amino}-6-[(3-{1,3,3,3-tetramethyl-1-[(trimethylsilyl)oxy]disiloxanyl}propyl)amino]-1,3,5-triazin-2-yl}amino)benzoate] | 60% gel | 40% gel | 28% | 31% | – | 27% | 60% gel | 60% gel | 60% gel |
| CC(C)(C)CC(C)(C)NC(=O)c1ccc(Nc2nc(NCCC[Si](C)(O[Si](C)(C)C)O[Si](C)(C)C)nc(Nc3ccc(C(=O)NC(C)(C)CC(C)(C)C)cc3)n2)cc1 [Screening agent 5, N-(1,1,3,3-tetramethylbutyl)-4-({4-[(4-{[(1,1,3,3-tetramethylbutyl)amino]carbonyl}phenyl)amino]-6-[(3-{1,3,3,3-tetramethyl-1-[(trimethylsilyl)oxy]disiloxanyl}propyl)amino]-1,3,5-triazin-2-yl}amino)benzamide] | 60% gel | 40% gel | – | – | – | – | – | – | – |
